This is an account of results in patent US4257941A, “Polycyclic nitrogen-containing compounds” (BASF Aktiengesellschaft, priority 1976, dated 1981).

Structures are written as SMILES. Like-named read-outs stand apart in the source and are kept apart here.

One experiment deals with sugar beet. Briefly: Sugar content of sugar beet in the open (Example 21). Format: in vivo, Beta vulgaris sap. altissima (Kleinwanzleben KAWPoly). The note with it: 2.0 kg/ha; for Sugar content in freshly lifted beet, absolute: control 12.6 a; for Sugar content in freshly lifted beet, relative increase: control 100. The source says:
The crop plant was Beta vulgaris sap. altissima, variety "Kleinwanzleben KAWPoly". The soil was a sandy loam (1.5% organic substance, pH 5.7). Mineral fertilization totalled 400 kg N, 100 kg P2 O5, and 100 kg K2 O per hectare. For chemical weed control, 2.5 kg/ha of 1-phenyl-4-amino-5-chloropyridazone-(6) was applied before emergence of the beet plants. Aphids were controlled with dimethoate (O,O-dimethyl-S-(N-methylcarbonylmethyl)-phosphorus dithioate). Sowing took place on Mar. 10, 1975. The beets were lifted comparatively early on Sept. 29, 1975. The active ingredient was applied with the aid of spraying equipment with fine nozzles, mounted on a tractor. The amount of water used for dispersion purposes was 780 liters/ha. Treatment was effected on 2 different dates and on different plots:
I--the beet had 5 to 7 true leaves;
II--five weeks before harvesting, on the well developed plants. The sugar content was determined from fresh beets immediately after lifting.

The next experiment deals with Alopecurus myosuroides. Put plainly: Herbicidal action (Example 25). The note with it: Alopecurus myosuroides, pre-emergence, read-out: percentage damage. Type of experiment: in vivo. The procedure, abridged:
(§1)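 Visual 0–100 damage rating (0 none, 100 not germinated or fully destroyed) taken 2 to 6 weeks after spraying aqueous suspensions or emulsions. Treatment was either preemergence on freshly sown sandy loam or postemergence on leaves at 2 to 8 cm growth height.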

The next experiment deals with Digitaria sanguinalis. Put plainly: Herbicidal action (Example 25). Format: in vivo. The note with it: preemergence. The essentials:
as §1

A further experiment concerns Ipomoea spp. Briefly: Herbicidal action (Example 25). Type of experiment: in vivo. The note with it: preemergence. The essentials: as §1
A further experiment deals with Cynodon dactylon. Put plainly: Herbicidal action (Example 25). Format: in vivo. The note with it: preemergence. The procedure, abridged:
as §1

The subject of the next experiment is Cyperus esculentus. Put plainly: Herbicidal action (Example 25). Type of experiment: in vivo. The note with it: preemergence. The essentials: as §1
The test system of a further experiment is Euphorbia spp. Briefly: Herbicidal action (Example 25). The note with it: preemergence. Type of experiment: in vivo. The procedure, abridged: as §1
The test system of the next experiment is Sinapis alba. Put plainly: Herbicidal action (Example 25). The note with it: pre-emergence, read-out: percentage damage. Format: in vivo. The procedure, abridged: as §1
A further experiment relates to Stellaria media. Briefly: Herbicidal action (Example 25). Type of experiment: in vivo. The note with it: preemergence, 2.0 kg/ha. The essentials: as §1
The subject of the next experiment is Poa annua. Put plainly: Herbicidal action (Example 25). Type of experiment: in vivo. The note with it: Poa annua, pre-emergence, read-out: percentage damage. The procedure, abridged:
as §1

A further experiment deals with Matricaria chamomilla. Briefly: Herbicidal action (Example 25). Format: in vivo. The note with it: preemergence, 2.0 kg/ha. The essentials:
as §1

Another experiment concerns Panicum virgatum. Briefly: Herbicidal action (Example 25). Type of experiment: in vivo. The note with it: preemergence, 2.0 kg/ha. The procedure, abridged:
as §1

A further experiment deals with Sorghum halepense. Briefly: Herbicidal action (Example 25). The note with it: preemergence. Format: in vivo. The essentials: as §1
For a further experiment, the system named is Setaria faberii. Briefly: Herbicidal action (Example 25). Format: in vivo. The note with it: preemergence. The essentials:
as §1

As for `Brc1ccc(N2N=NC3C4CC(C5N=NC45)C32)cc1` (stereo not drawn) [drawing 401], the “Sugar content in freshly lifted beet, absolute” value is on record as 14.35% in the experiment with sugar beet (date I (20.05.75), letter = Duncan group) and 13.85% in the experiment with sugar beet (date II (21.08.75), letters = Duncan group). Besides, the “Sugar content in freshly lifted beet, relative increase” value was 113 in the experiment with sugar beet (date I) and 110 in the experiment on sugar beet (date II).

In the case of `c1ccc(N2N=NC3C4CC(C5N=NC45)C32)cc1` (stereo not drawn) [drawing 410], the pest or weed control at 4000 g/ha with Alopecurus myosuroides (preemergence, 4.0 kg/ha) turned out to be 85%. Besides, the percentage damage is recorded as 100 percentage damage with Digitaria sanguinalis (2.0 kg/ha); 50 percentage damage in the experiment on Ipomoea spp. (2.0 kg/ha); 60 percentage damage in the experiment on Ipomoea spp. (4.0 kg/ha); 70 percentage damage in the experiment on Cynodon dactylon (2.0 kg/ha); 90 percentage damage with Cynodon dactylon (4.0 kg/ha); 27 percentage damage in the experiment with Cyperus esculentus (2.0 kg/ha). Besides, the percentage damage with Cyperus esculentus (4.0 kg/ha) worked out at 55 percentage damage.

`c1ccc(N2C3C4CC(C5N=NC45)C32)cc1` (stereo not drawn) [drawing 411]: the pest or weed control at 2000 g/ha with Alopecurus myosuroides came to 70%. In addition, in the experiment with Alopecurus myosuroides, the pest or weed control at 4000 g/ha was determined as 83%. Moreover, the percentage damage in the experiment on Digitaria sanguinalis (2.0 kg/ha) is listed as 70 percentage damage; with Digitaria sanguinalis (4.0 kg/ha), 100 percentage damage; in the experiment with Ipomoea spp. (4.0 kg/ha), 29 percentage damage; with Cynodon dactylon (2.0 kg/ha) it was 65 percentage damage; in the experiment with Cynodon dactylon (4.0 kg/ha), 90 percentage damage; in the experiment with Euphorbia spp. (2.0 kg/ha) it was 90 percentage damage. In addition, the percentage damage was 100 percentage damage with Euphorbia spp. (4.0 kg/ha), 45 percentage damage in the experiment with Cyperus esculentus (2.0 kg/ha) and 60 percentage damage in the experiment with Cyperus esculentus (4.0 kg/ha).

As to `Cc1ccc(N2N=NC3C4CC(C5N=NC45)C32)cc1` (stereo not drawn) [drawing 413], the pest or weed control at 2000 g/ha in the experiment with Alopecurus myosuroides (preemergence, 2.0 kg/ha) came to 40%. In the experiment on Alopecurus myosuroides (preemergence, 4.0 kg/ha), the pest or weed control at 4000 g/ha worked out at 40%. For the same compound, the percentage damage in the experiment with Digitaria sanguinalis (2.0 kg/ha) is on record as 100 percentage damage; with Digitaria sanguinalis (4.0 kg/ha) it was 100 percentage damage; in the experiment on Ipomoea spp. (2.0 kg/ha), 78 percentage damage; in the experiment with Ipomoea spp. (4.0 kg/ha), 75 percentage damage; with Cynodon dactylon (2.0 kg/ha), 83 percentage damage; in the experiment on Cynodon dactylon (4.0 kg/ha), 100 percentage damage. The percentage damage is recorded as 90 percentage damage with Euphorbia spp. (2.0 kg/ha), 100 percentage damage with Euphorbia spp. (4.0 kg/ha), 0 percentage damage with Cyperus esculentus (2.0 kg/ha) and 0 percentage damage in the experiment on Cyperus esculentus (4.0 kg/ha).

As for `O=S(=O)(c1ccccc1)N1C2C3CC(C4N=NC34)C21` (stereo not drawn) [drawing 414], the pest or weed control at 2000 g/ha in the experiment with Alopecurus myosuroides (preemergence, 2.0 kg/ha) was 80%. Further, the pest or weed control at 4000 g/ha with Alopecurus myosuroides (preemergence, 4.0 kg/ha) was 80%. Besides, the percentage damage in the experiment with Digitaria sanguinalis (2.0 kg/ha) was 68 percentage damage; in the experiment with Digitaria sanguinalis (4.0 kg/ha), 90 percentage damage; in the experiment on Ipomoea spp. (2.0 kg/ha), 78 percentage damage; with Cynodon dactylon (2.0 kg/ha), 90 percentage damage; with Cynodon dactylon (4.0 kg/ha), 100 percentage damage; in the experiment with Euphorbia spp. (2.0 kg/ha), 65 percentage damage. Also, the percentage damage with Euphorbia spp. (4.0 kg/ha) worked out at 90 percentage damage; in the experiment on Cyperus esculentus (2.0 kg/ha), 0 percentage damage; in the experiment on Cyperus esculentus (4.0 kg/ha) it was 0 percentage damage.

For the compound `c1ccc(N2N=NC3C4CC(C5N=NC45)C32)cc1` (stereo not drawn) [drawing 415], the pest or weed control at 2000 g/ha in the experiment on Sinapis alba (preemergence, 2.0 kg/ha) was 99%; in the experiment on Poa annua (preemergence, 2.0 kg/ha) it was 95%. For the same compound, the pest or weed control at 4000 g/ha in the experiment with Sinapis alba (preemergence, 4.0 kg/ha) stood at 100%. Besides, the percentage damage was found to be 100 percentage damage in the experiment on Stellaria media; 95 percentage damage with Matricaria chamomilla; 100 percentage damage with Panicum virgatum; 75 percentage damage in the experiment with Sorghum halepense (2.0 kg/ha); 100 percentage damage in the experiment with Sorghum halepense (4.0 kg/ha); 97 percentage damage with Setaria faberii (2.0 kg/ha). Further, in the experiment with Setaria faberii (4.0 kg/ha), the percentage damage amounted to 100 percentage damage.

As to `c1ccc(N2C3C4CC(C5N=NC45)C32)cc1` (stereo not drawn) [drawing 416], the pest or weed control at 2000 g/ha with Sinapis alba was 74%; with Poa annua, 57%. The percentage damage in the experiment with Stellaria media was 100 percentage damage; in the experiment with Matricaria chamomilla, 95 percentage damage; in the experiment with Panicum virgatum, 100 percentage damage; in the experiment on Sorghum halepense (2.0 kg/ha), 74 percentage damage; in the experiment with Sorghum halepense (4.0 kg/ha) it was 78 percentage damage; in the experiment on Setaria faberii (2.0 kg/ha), 59 percentage damage. The compound further gave a percentage damage in the experiment with Setaria faberii (4.0 kg/ha) of 65 percentage damage.

Turning to `Cc1ccc(N2N=NC3C4CC(C5N=NC45)C32)cc1` (stereo not drawn) [drawing 418], the pest or weed control at 2000 g/ha came out at 98% in the experiment with Sinapis alba (preemergence, 2.0 kg/ha) and 65% with Poa annua (preemergence, 2.0 kg/ha). In addition, the percentage damage in the experiment on Stellaria media was 13 percentage damage; in the experiment with Sorghum halepense (2.0 kg/ha), 55 percentage damage; in the experiment on Sorghum halepense (4.0 kg/ha) it was 55 percentage damage; with Setaria faberii (2.0 kg/ha), 55 percentage damage; in the experiment on Setaria faberii (4.0 kg/ha) it was 100 percentage damage.
